Source: US10293023B2, “Method of altering vascular permeability and uses thereof” (CHILDREN'S MEDICAL CENTER CORPORATION, priority 2013, dated 2019)

Key:
lung cell = test: Lung cell proliferation or apoptosis in vivo; design: species or system mice; conditions: data not shown
mouse lungs [1] = test: In vivo pulmonary permeability assay (Evan's Blue dye leakage); design: species or system mice
Description: (§1) Mice (6-10 weeks old, CD1 strain, female) were treated with LPS (100 mg, intraperitoneally) and lung permeability was assessed 2 days after injection ^3. […] The lung permeability was measured using Evan's Blue dye or low MW fluorescently labeled dextran (MW 4000, sigma) leakage ^3. Evans blue dye was extracted from the lung by incubation with formamide (70° C. for 24 h) and the concentration of Evans blue was estimated by dual-wavelength spectrophotometer (620 nm and 740 nm). Mice were treated with BAPN (3 mg/kg, drinking water) for 14 days ^13. […] The inventors treated the mice with LPS for the last two days. For decellularization of lung, the inventors perfused the lung with decellularization buffer (0.5% SDS/PBS) for 1 h and cryosectioned it and analyzed by H&E staining and immunohistochemistry 25,26. […] For analysis of collagen structure, the inventors used picrosirius red staining ^30 and observed the structure using birefringence microscope (Abrio imaging system, CRI, MA)^30.

mouse lungs [2] = test: Endotoxin (LPS)-induced lung vascular permeability, Evan's Blue dye leakage; conditions: for increase of vascular permeability induced by LPS: treatment in combination with LPS for the last two days
Description: as §1

LOX [3] = test: LOX activity measured in blood samples (LOX activity assay kit); assay type: in vivo; conditions: treated mice vs control; BAPN 2 weeks, LOX siRNA 1 week
Description: LOX activity in the serum and lung homogenate was measured using LOX activity assay kit (ABD Bioquest, CA) in which LOX substrate that releases hydrogen peroxide was detected ^13,37,55. Hydroxyproline in lung tissue or serum was measured using Hydroxyproline assay kit (Biovision, Milpitas, Calif.)^27. The levels of IL-1 and TNF-α in the lung homogenate were measured by ELISA (R&D systems).

[4] = test system: pulmonary endothelial cells; test: Endothelial cell-cell junctional integrity in lung by TEM; assay type: in vivo, mice
Description: For transmission electron microscopy (TEM), small pieces (1-2 mm cubes) of lung tissue were fixed with 2.5% Glutaraldehyde and 2% Paraformaldehyde in 0.1 M sodium cacodylate buffer (pH 7.4) for at least 2 h at RT, washed in 0.1M cacodylate buffer and postfixed with 1% Osmiumtetroxide (OsO4)/1.5% Potassiumferrocyanide (KFeCN6) for 1 h, washed in water and incubated in 1% aqueous uranyl acetate for 1 h followed by washes in water and subsequent dehydration in grades of alcohol. The samples were then put in propyleneoxide for 1 hr and infiltrated ON in a 1:1 mixture of propyleneoxide and TAAB Epon (Marivac Canada Inc. St. Laurent, Canada). The samples were then embedded in TAAB Epon and polymerized at 60 C for 48 hrs. Ultrathin sections (about 60 nm) were cut on a Reichert Ultracut-S microtome, picked up on to copper grids stained with lead citrate and examined in a JEOL 1400 TEM microscope or a TecnaiG^2 Spirit BioTWIN.

mouse lungs [5] = test: Inflammatory cell count in BAL fluid (Wright-Giemsa stain); assay type: in vivo, mice; conditions: total inflammatory cell count
Description: BAL was performed by instilling 0.9% NaCl in two separate 0.5 ml aliquots. The fluid was recovered by gentle suction and placed on ice for immediate processing. An aliquot of the BAL fluid was processed immediately for differential cell counts performed on cytospin preparations stained with modified Wright-Giemsa stain (Diff-Quik; American Scientific Products, McGaw Park, Ill.).

mouse lung tissues = test: Lung stiffness (Young's modulus) by tensile loading assay; conditions: compared with controls (control IgG, control siRNA)
Description: Mice (6-10 weeks old, CD1 strain, female) were treated with LPS (100 mg, intraperitoneally) and lung permeability was assessed 2 days after injection ^3. […] Gene knockdown or overexpression in the lung (2 days later) was confirmed by measuring mRNA and/or protein levels using qRT-PCR and IB, respectively. […] Mice were treated with BAPN (3 mg/kg, drinking water) for 14 days ^13. The inventors also treated mice with LOX function-blocking polyclonal antibody (3 mg/kg)^13,36, LOX DNA or LOX siRNA (10 mg/mouse) injected intravenously (retro orbital injection) twice per week. The inventors treated the mice with LPS for the last two days.
The inventors trimmed and made cylindrical lung tissue sections using a sharp knife that included peripheral and central portions of the left lobe. The stiffness of mouse lung tissues was evaluated by determining Young's Modulus (E) under tensile loading ^31,32 (Mach-1; Biomomentum, Canada). Tissues were attached to the base and probe using polyacrylamide glue and stretched until complete breakage of the tissue. The Young's Modulus was derived from the slope of a standard stress-strain curve using data within the first 10% of the maximum strain.

mouse lungs [6] = test: ECM and collagen structure of decellularized lung (H&E, immunofluorescence, picrosirius red birefringence); conditions: for collagen fiber alignment with alveolar septae: picrosirius red staining, birefringence microscopy
Description: as §1

LOX [7] = test: LOX mRNA and protein expression in vivo (qRT-PCR, immunoblot); design: species or system mice
Description: Quantitative reverse transcription (qRT)-PCR was performed with the Quantitect SYBR Green RT-PCR kit (QIAGEN) using ABI 7300 real time PCR system (Applied Biosystems, Foster City, Calif.). Cyclophilin controlled for overall cDNA content. The primers used for mouse cyclophilin were forward; 5′-[…]-3′ (SEQ ID NO:4), reverse; 5′-[…]-3′(SEQ ID NO:5)^15. The primers for mouse LOX were forward; 5′-[…]-3′(SEQ ID NO:6), reverse; 5′-[…]-3′(SEQ ID NO:7).

Row | Molecule | lung cell proliferation or apoptosis in vivo (lung cell) | lung vascular permeability: Evan's Blue dye leakage higher than in control non-treated lungs (mouse lungs [1]; BAPN treatment of healthy mice) | LPS-induced pulmonary edema in mice (mouse lungs [2]; mouse, in vivo) | increase of vascular permeability induced by LPS (mouse lungs [2]) | decrease in LOX activity measured in blood samples (LOX [3]) | junctions between pulmonary endothelial cells [4] | increase of inflammatory cells in the bronchoalveolar lavage (BAL) fluid (mouse lungs [5]) | decrease of lung stiffness (Young's modulus) (mouse lung tissues) | disruption of collagen VI-positive ECM fibers by LPS (mouse lungs [6]; decellularized lungs, LPS in combination with BAPN) | fine collagen fibril / ECM structure in decellularized lung (mouse lungs [6]; immunofluorescence microscopy) | collagen fiber alignment with alveolar septae (mouse lungs [6]) | increase of lung vascular permeability (mouse lungs [1]; Evan's Blue dye leakage, compared to control-treated or untreated mice) | LOX expression in the lung (LOX [7]; mRNA and/or protein) | LOX expression in other organs, such as the kidney (LOX [7]; not shown) | suppression of vascular permeability induced by LPS treatment (mouse lungs [2]; Evans blue dye leakage, 8 mg/mouse/day, IP, two days)
1 | N#CCCN [BAPN, beta-aminopropionitrile] | did not produce detectable changes | more than 60% | inhibits | prevented | 25% | disrupted | approximately 2 fold | 40% | prevented this disruption | lost the fine network | more randomly distributed |  |  |  | 
2 | LOX siRNA: siRNA for mouse LOX, 5′-CAACGGGCAGGUGUUCAG-3′ (SEQ ID NO:2) and 5′-CUGAACACCUGCCCGUUG-3′ (SEQ ID NO:3) (listed as RNA, chemistry not given here) |  |  |  | restored | 60% |  |  | 30% |  |  | disrupted normal collagen fiber alignment | 2.5 fold | specifically decreased | not in the kidney | 
3 | CC(C)(S)[C@@H](N)C(=O)O [D-penicillamine] |  |  |  |  |  |  |  |  |  |  |  |  |  |  | 40%
